# Article PMC9188596, “Structural basis of resistance to herbicides that target acetohydroxyacid synthase” (Nature Communications, 2022)
# Several values for one entry are separate records, joined by “and”; a condition that tells them apart may be missing. Equal values may be shown once. Entries after “also recorded” stand apart in the source; their conditions may differ. Read-outs that look alike come from different tables or passages of the source.
# Assays:
# AtAHAS P197T mutant [1] = target: T1, AtAHAS P197T mutant (Arabidopsis thaliana, UniProt P17597, P197T); type: biochemical; conditions: for k3 (rate of recovery) / kiapp (apparent rate of enzyme inactivation) / kiapp/k3 (efficiency of accumulative inhibition) / k3, single progress curve (Supplementary Figure 8) / kiapp, single progress curve (Supplementary Figure 8): P197T; for k3 (rate of recovery) / kiapp (apparent rate of enzyme inactivation): 160 mM pyruvate, 30 °C; for k3 (rate of recovery) / kiapp (apparent rate of enzyme inactivation) / kiapp/k3 (efficiency of accumulative inhibition): NAI = no accumulative inhibition detected; for k3, single progress curve (Supplementary Figure 8) / kiapp, single progress curve (Supplementary Figure 8): individual replicate of triplicate
# Protocol: (§1) Standard assays were performed using a continuous spectrophotometric method measuring the disappearance of pyruvate. The standard buffer contained 50 mM potassium phosphate, pH 7.2, 1 mM ThDP, 10 mM MgCl2, and 10 µM FAD. The concentration of pyruvate was in the range 100–160 mM, as described in the text, methods, or figure legends.
# (§2) AtAHAS was assayed in the standard assay buffer containing 160 mM pyruvate, at 30 °C. For AtAHAS activation the progress curve corresponding to the lag-phase was fitted to Eq. (8) of Lonhienne et al.[14]. For the time dependent accumulative inhibition of AtAHAS the progress curves were fitted to Equation 9 of Lonhienne et al.[12].
# (§3) Supplementary Figure 8. Measurement of the rate constants of accumulative inhibition for WT AtAHAS and its mutants. The progress curves were fitted to the equation of accumulative inhibition (Equation 7 2). The rate constants of enzyme inactivation ( kiapp) and enzyme recovery (k3) were measured in triplicate. Source data are provided with this paper. […]
# AtAHAS S653T mutant [2] = target: T2, AtAHAS S653T mutant (Arabidopsis thaliana, UniProt P17597, S653T); type: biochemical; conditions: for kiapp/k3 (efficiency of accumulative inhibition) / k3 (rate of recovery) / kiapp (apparent rate of enzyme inactivation) / k3, single progress curve (Supplementary Figure 8) / kiapp, single progress curve (Supplementary Figure 8): S653T; for k3 (rate of recovery) / kiapp (apparent rate of enzyme inactivation): 160 mM pyruvate, 30 °C, ± SEM; for k3, single progress curve (Supplementary Figure 8) / kiapp, single progress curve (Supplementary Figure 8): individual replicate of triplicate
# Protocol: as §1, §2, §3
# AtAHAS P197L mutant [3] = target: T3, AtAHAS P197L mutant (Arabidopsis thaliana, UniProt P17597, P197L); type: biochemical; conditions: for k3 (rate of recovery) / kiapp (apparent rate of enzyme inactivation): 160 mM pyruvate, 30 °C; for k3 (rate of recovery) / kiapp (apparent rate of enzyme inactivation) / kiapp/k3 (efficiency of accumulative inhibition): NAI = no accumulative inhibition detected; for k3, single progress curve (Supplementary Figure 8) / kiapp, single progress curve (Supplementary Figure 8): individual replicate of triplicate
# Protocol: as §1, §2, §3
# AtAHAS W574L mutant [4] = target: T4, AtAHAS W574L mutant (Arabidopsis thaliana, UniProt P17597, W574L); type: biochemical; conditions: for k3 (rate of recovery) / kiapp (apparent rate of enzyme inactivation): 160 mM pyruvate, 30 °C; for k3 (rate of recovery) / kiapp (apparent rate of enzyme inactivation) / kiapp/k3 (efficiency of accumulative inhibition): NAI = no accumulative inhibition detected
# Protocol: as §1, §2, §3
# WT AtAHAS [5] = target: T5, WT AtAHAS (Arabidopsis thaliana, UniProt P17597); conditions: cited from earlier work
# WT AtAHAS [6] = target: T5, WT AtAHAS; type: biochemical; conditions: for k3 (rate of recovery) / kiapp (apparent rate of enzyme inactivation): 160 mM pyruvate, 30 °C, ± SEM; for k3, single progress curve (Supplementary Figure 8) / kiapp, single progress curve (Supplementary Figure 8): individual replicate of triplicate
# Protocol: as §1, §2
# Supplementary Figure 8. Measurement of the rate constants of accumulative inhibition for WT AtAHAS and its mutants. The progress curves were fitted to the equation of accumulative inhibition (Equation 7 2). The rate constants of enzyme inactivation ( kiapp) and enzyme recovery (k3) were measured in triplicate. Source data are provided with this paper.
# AtAHAS P197T mutant [7] = target: T1, AtAHAS P197T mutant; assay: biochemical
# Protocol: as §1
# (§4) Supplementary Figure 6. Measurement of the Ki values for WT AtAHAS and the mutants.
# (§5) The error bars represent the standard error of the mean of two independent replicates. [I] =
# (§6) inhibitor concentration. Source data are provided with this paper.
# (§7) (1 picture or pasted object on this page, not shown here)
# AtAHAS S653T mutant [8] = target: T2, AtAHAS S653T mutant; assay: biochemical
# Protocol: as §1, §4, §5, §6, §7
# AtAHAS P197L mutant [9] = target: T3, AtAHAS P197L mutant; assay: biochemical
# Protocol: as §1, §4, §5, §6, §7
# AtAHAS W574L mutant [10] = target: T4, AtAHAS W574L mutant; assay: biochemical; conditions: for increase in Ki / loss of affinity compared to WT: W574L vs WT
# Protocol: as §1, §4, §5, §6, §7
# [11] = individual replicate of triplicate
# [12] = ± standard error of the mean, ref Garcia et al.[13]
# [13] = Ki (Supplementary Figure 6), P197T, fit of % activity remaining vs [I], two independent replicates
# [14] = Ki, P197T mutant, ± standard error of the mean
# [15] = Ki, S653T mutant, ± standard error of the mean
# [16] = Ki (Supplementary Figure 6), P197L, fit of % activity remaining vs [I], two independent replicates
# [17] = Ki, P197L mutant, ± standard error of the mean
# [18] = Ki, W574L mutant, ± standard error of the mean
smiles,measurement,setting,value
"COc1cc(OC)nc(Oc2cccc(Oc3nc(OC)cc(OC)n3)c2C(=O)O)n1 [BS, bispyribac]",k3 (rate of recovery),AtAHAS P197T mutant [1],0.031 ± 0.004 min⁻¹
same,kiapp (apparent rate of enzyme inactivation),AtAHAS P197T mutant [1],1.14 ± 0.11 min⁻¹
same,kiapp/k3 (efficiency of accumulative inhibition),AtAHAS P197T mutant [1],37
same,"k3, single progress curve (Supplementary Figure 8)",AtAHAS P197T mutant [1],0.035 min-1 (2×) and 0.023 min-1
same,"kiapp, single progress curve (Supplementary Figure 8)",AtAHAS P197T mutant [1],1.09 min⁻¹ and 0.98 min⁻¹ and 1.34 min⁻¹
same,increase in efficiency of accumulative inhibition compared to WT,AtAHAS P197T mutant [1]; P197 mutant vs WT (kiapp/k3),two-fold
same,kiapp/k3 (efficiency of accumulative inhibition),AtAHAS S653T mutant [2],39
same,efficiency of accumulative inhibition (kiapp/k3) compared to WT (in words),AtAHAS S653T mutant [2]; S653T vs WT,increased
same,k3 (rate of recovery),AtAHAS S653T mutant [2],0.017 ± 0.001 min⁻¹
same,kiapp (apparent rate of enzyme inactivation),AtAHAS S653T mutant [2],0.66 ± 0.04 min⁻¹
same,"k3, single progress curve (Supplementary Figure 8)",AtAHAS S653T mutant [2],0.018 min⁻¹ and 0.019 min⁻¹ and 0.015 min⁻¹
same,"kiapp, single progress curve (Supplementary Figure 8)",AtAHAS S653T mutant [2],0.59 min⁻¹ and 0.71 min⁻¹ and 0.69 min⁻¹
same,k3 (rate of recovery),AtAHAS P197L mutant [3],0.037 ± 0.003 min⁻¹
same,kiapp (apparent rate of enzyme inactivation),AtAHAS P197L mutant [3],1.15 ± 0.09 min⁻¹
same,kiapp/k3 (efficiency of accumulative inhibition),AtAHAS P197L mutant [3],31
same,"k3, single progress curve (Supplementary Figure 8)",AtAHAS P197L mutant [3],0.043 min⁻¹ and 0.036 min⁻¹ and 0.032 min⁻¹
same,"kiapp, single progress curve (Supplementary Figure 8)",AtAHAS P197L mutant [3],1.33 min⁻¹ and 1.1 min⁻¹ and 1.03 min⁻¹
same,accumulative inhibition (in words),AtAHAS W574L mutant [4],irreversible; also recorded: still can promote accumulative inhibition
same,k3 (rate of recovery),AtAHAS W574L mutant [4],<1e-12 min⁻¹
same,kiapp (apparent rate of enzyme inactivation),AtAHAS W574L mutant [4],0.03 ± 0.006 min⁻¹
same,kiapp/k3 (efficiency of accumulative inhibition),AtAHAS W574L mutant [4],>10^11
same,"k3, single progress curve (Supplementary Figure 8)",AtAHAS W574L mutant [4]; [11],~ 0 min-1
same,"kiapp, single progress curve (Supplementary Figure 8)",AtAHAS W574L mutant [4]; [11],0.043 min⁻¹ and 0.026 min⁻¹ and 0.025 min⁻¹
same,Ki,WT AtAHAS [5]; [12],0.041 ± 0.006 µM
same,kiapp/k3 (efficiency of accumulative inhibition),WT AtAHAS [6],18
same,k3 (rate of recovery),WT AtAHAS [6],0.018 ± 0.002 min⁻¹
same,kiapp (apparent rate of enzyme inactivation),WT AtAHAS [6],0.32 ± 0.03 min⁻¹
same,"k3, single progress curve (Supplementary Figure 8)",WT AtAHAS [6],0.022 min⁻¹ and 0.018 min⁻¹ and 0.014 min⁻¹
same,"kiapp, single progress curve (Supplementary Figure 8)",WT AtAHAS [6],0.38 min⁻¹ and 0.28 min⁻¹ and 0.3 min⁻¹
same,Ki,AtAHAS P197T mutant [7]; [13],0.106 ± 0.00483 µM
same,Ki,AtAHAS P197T mutant [7]; [14],0.106 ± 0.0048 µM
same,increase in Ki / loss of affinity compared to WT,AtAHAS P197T mutant [7]; P197T vs WT,around three-fold
same,loss of affinity,AtAHAS P197T mutant [7]; P197T vs WT,~ 50%
same,Ki,AtAHAS S653T mutant [8]; [15],0.09 ± 0.0131 µM
same,loss of affinity,AtAHAS S653T mutant [8]; S653T vs WT,~ 50%
same,Ki,AtAHAS P197L mutant [9]; [16],0.115 ± 0.0134 µM
same,Ki,AtAHAS P197L mutant [9]; [17],0.115 ± 0.013 µM
same,loss of affinity,AtAHAS P197L mutant [9]; P197L vs WT,~ 50%
same,Ki,"AtAHAS W574L mutant [10]; Ki (Supplementary Figure 6), W574L, fit of % activity remaining vs [I], two independent replicates",6.11 ± 0.988 µM
same,Ki,AtAHAS W574L mutant [10]; [18],6.1 ± 1 µM
same,increase in Ki / loss of affinity compared to WT,AtAHAS W574L mutant [10],150 fold
"CC(C)C1(C)N=C(c2nc3ccccc3cc2C(=O)O)NC1=O (stereo not shown) [IQ, imazaquin]",k3 (rate of recovery),AtAHAS P197T mutant [1],<1e-12 min⁻¹
same,kiapp (apparent rate of enzyme inactivation),AtAHAS P197T mutant [1],0.27 ± 0.012 min⁻¹
same,kiapp/k3 (efficiency of accumulative inhibition),AtAHAS P197T mutant [1],>10^11
same,"k3, single progress curve (Supplementary Figure 8)",AtAHAS P197T mutant [1],~ 0 min-1
same,"kiapp, single progress curve (Supplementary Figure 8)",AtAHAS P197T mutant [1],0.29 min-1 and 0.28 min-1 (2×)
same,kiapp/k3 (efficiency of accumulative inhibition),AtAHAS S653T mutant [2],>10^11
same,k3 (rate of recovery),AtAHAS S653T mutant [2],<1e-12 min⁻¹
same,kiapp (apparent rate of enzyme inactivation),AtAHAS S653T mutant [2],0.37 ± 0.017 min⁻¹
same,"k3, single progress curve (Supplementary Figure 8)",AtAHAS S653T mutant [2],~ 0 min-1
same,"kiapp, single progress curve (Supplementary Figure 8)",AtAHAS S653T mutant [2],0.34 min⁻¹ and 0.38 min⁻¹ and 0.39 min⁻¹
same,k3 (rate of recovery),AtAHAS P197L mutant [3],<1e-12 min⁻¹
same,kiapp (apparent rate of enzyme inactivation),AtAHAS P197L mutant [3],0.26 ± 0.008 min⁻¹
same,kiapp/k3 (efficiency of accumulative inhibition),AtAHAS P197L mutant [3],>10^11
same,"k3, single progress curve (Supplementary Figure 8)",AtAHAS P197L mutant [3],~ 0 min-1
same,"kiapp, single progress curve (Supplementary Figure 8)",AtAHAS P197L mutant [3],0.25 min-1 (2×) and 0.26 min-1
same,k3 (rate of recovery),AtAHAS W574L mutant [4],NAI
same,kiapp (apparent rate of enzyme inactivation),AtAHAS W574L mutant [4],NAI
same,kiapp/k3 (efficiency of accumulative inhibition),AtAHAS W574L mutant [4],NAI
same,Ki,WT AtAHAS [5],18 µM
same,Ki,WT AtAHAS [5]; [12],18.5 ± 2 µM
same,accumulative inhibition (in words),WT AtAHAS [6],irreversible
same,kiapp/k3 (efficiency of accumulative inhibition),WT AtAHAS [6],>10^11
same,k3 (rate of recovery),WT AtAHAS [6],<1e-12 min⁻¹
same,kiapp (apparent rate of enzyme inactivation),WT AtAHAS [6],0.86 ± 0.03 min⁻¹
same,"k3, single progress curve (Supplementary Figure 8)",WT AtAHAS [6],~ 0 min-1
same,"kiapp, single progress curve (Supplementary Figure 8)",WT AtAHAS [6],0.86 min⁻¹ and 0.92 min⁻¹ and 0.83 min⁻¹
same,Ki,AtAHAS P197T mutant [7]; [13],12.4 ± 1.83 µM
same,Ki,AtAHAS P197T mutant [7]; [14],12.4 ± 1.8 µM
same,Ki,"AtAHAS S653T mutant [8]; Ki (Supplementary Figure 6), S653T, fit of % activity remaining vs [I], two independent replicates",240 ± 25.5 µM
same,Ki,AtAHAS S653T mutant [8]; [15],240 ± 26 µM
same,increase in Ki compared to WT,AtAHAS S653T mutant [8]; S653T vs WT,more than 10 fold
same,Ki,AtAHAS P197L mutant [9]; [16],13.8 ± 1.14 µM
same,Ki,AtAHAS P197L mutant [9]; [17],13.8 ± 1.1 µM
same,Ki,AtAHAS W574L mutant [10]; [18],704 ± 58.5 µM
same,increase in Ki / loss of affinity compared to WT,AtAHAS W574L mutant [10],38 fold
